This is an account of results in ChEMBL document CHEMBL5131375, “Recent Developments in the Use of Kinase Inhibitors for Management of Viral Infections” (J Med Chem, 2022).

Data set [1] relates to Human betaherpesvirus 5. Nature of the data set: microbe, parasite or virus in culture. The class given is functional, organism-based.
Data set [2] relates to Human betaherpesvirus 5. Briefly: Antiviral activity against HCMV Merlin (RCMV 1111) infected in HFF cells incubated for 96 hrs. The class given is functional, organism-based. To be noted: Human betaherpesvirus 5, Merlin (RCMV 1111).
In data set [3] the test system is Human betaherpesvirus 5. Briefly: Antiviral activity against HCMV AD169 infected in HFF cells incubated for 96 hrs. The class given is functional, organism-based. To be noted: Human betaherpesvirus 5, AD169, HFF.
In data set [4] the test system is Hepatitis C virus. Nature of the data set: microbe, parasite or virus in culture.
The test system of data set [5] is Hepatitis C virus. Briefly: microbe, parasite or virus in culture. The source holds these as a separate data set.
A short description of data set [6]: in vitro. To be noted: human, huh-7.
A short description of data set [7]: in vitro. Particulars: human.
In data set [8] the test system is Hepatitis C virus. Briefly: microbe, parasite or virus in culture. To be noted: subtype 1b.
The next data set concerns Human rhinovirus sp. Briefly: microbe, parasite or virus in culture.
In a further data set the test system is Coxsackievirus B3. Nature of the data set: microbe, parasite or virus in culture. To be noted: Enterovirus B.
Data set [9] is described as follows: in vitro. To be noted: human, hela.
In data set [10] the test system is Influenza A virus. Nature of the data set: microbe, parasite or virus in culture. Format: functional, organism-based.
Data set [11] is described as follows: Cytotoxicity against human A549 cells. Format: toxicity, cell-based.
For data set [12], the system named is Influenza A virus. Briefly: Antiviral activity against influenza A virus HN79. Format: functional, organism-based.
Data set [13] deals with Influenza A virus. Briefly: microbe, parasite or virus in culture. The class given is functional, organism-based. To be noted: H3N2.
Data set [14] deals with Influenza A virus. Briefly: microbe, parasite or virus in culture. Format: functional, organism-based. Particulars: pdmH1N1.
In a further data set the test system is Dengue virus. Briefly: microbe, parasite or virus in culture.
For data set [15], the system named is Human alphaherpesvirus 1. Nature of the data set: microbe, parasite or virus in culture. Format: functional, organism-based.
In data set [16] the test system is Human alphaherpesvirus 1. Nature of the data set: Antiviral activity against HSV-1 in HFL1 cells incubated for 24 hrs. Format: functional, organism-based. To be noted: Human alphaherpesvirus 1, HFL1, 24 h.
Data set [17] is described as follows: Cytotoxicity against HFL1 cells. Format: toxicity, cell-based. Particulars: human.
Data set [18] relates to Human alphaherpesvirus 1. Nature of the data set: Antiviral activity against HSV-1 at 10 uM relative to control. The class given is functional.
Data set [19] has as its system Influenza A virus. Briefly: microbe, parasite or virus in culture. The class given is functional, organism-based. Particulars: H1N1pdm09.
Data set [20] deals with SARS-CoV-2. Briefly: microbe, parasite or virus in culture. The class given is functional, organism-based. To be noted: Severe acute respiratory syndrome coronavirus 2.
In data set [21] the test system is SARS-CoV-2. Nature of the data set: microbe, parasite or virus in culture. Format: functional, organism-based. Particulars: Severe acute respiratory syndrome coronavirus 2. The source holds these as a separate data set.
The next data set relates to Vero C1008. Nature of the data set: Cytotoxicity against African green monkey Vero E6 cells at 250 nM. Format: toxicity, cell-based. To be noted: chlorocebus sabaeus, vero c1008, 0.25 µM.
In data set [22] the test system is Influenza A virus. Nature of the data set: Antiviral actiivty against Influenza A (A/Regensburg/D6/2009 (H1N1)) infected in human A549 cells. The class given is functional, organism-based.

Take `COc1cc[nH]c1/C=C1\C(=O)Nc2ccc([N+](=O)[O-])c(N3CC[C@@H](O)C3)c21`: the results for the EC50 in the data set on Human betaherpesvirus 5 [1], in the data set with Human betaherpesvirus 5 [2] and in the data set with Human betaherpesvirus 5 [3] were 0.01 µM, 1.3 µM and 0.01 µM, respectively.

With `Cc1nc2c(NCc3cccc(S(C)(=O)=O)c3)nccn2c1-c1ccc(O)c(F)c1`, the EC50 in the data set with Hepatitis C virus [4] and in the data set on Hepatitis C virus [5] was 0.1 µM throughout. Further, the CC50 in “in vitro [6]” was above 30 µM.

The molecule `COc1cc(-c2cnc3c(N4CCOCC4)snc3c2)cc(OC)c1OC` returned an EC50 in the data set with Hepatitis C virus [4] of 2.5 µM. Further, the CC50 in the data set “in vitro [7]” (Huh-7.5.1 cells) was found to be 23.2 µM.

For `COc1ccc(-c2cnc3c(OC(C)C)snc3c2)cc1OC`, the CC50 in “in vitro [7]” (huh7.5.1) was above 10 µM.

`CC(=O)NCCNc1cc(Cl)nn2c(-c3cccc(S(=O)(=O)N(C)C)c3)c(C)nc12`: the EC50 with Hepatitis C virus [8] worked out at 0.08 µM; in the data set on Human rhinovirus sp. it was 1.03 µM; in the data set with Coxsackievirus B3, 0.14 µM. The same molecule registered a CC50 in “in vitro [9]” above 50 µM.

For the molecule `Cc1ccc([N+](=O)[O-])cc1S(=O)(=O)N(C)/N=C/c1cnc2ccc(Br)cn12`, the IC50 in the data set on Influenza A virus [10], with Influenza A virus [12], in the data set with Influenza A virus [13] and with Influenza A virus [14] was 0.04 µM throughout. The same molecule yielded a CC50 in data set [11] above 100 µM.

For `COc1ccc(-c2cnc3[nH]cc(C#Cc4cccnc4)c3c2)cc1OC`, the CC50 in the data set “in vitro [7]” (Huh-7.5.1 cells) is 17 µM. This molecule displayed an EC50 in the data set on Dengue virus of 0.043 µM.

`COc1ccc(-c2ccc3nsc(N4C[C@@H](C)O[C@@H](C)C4)c3n2)cc1OC` registered a CC50 in the data set “in vitro [7]” (huh7.5.1) above 10 µM. The molecule also had an EC50 in the data set with Dengue virus of 1 µM.

In the case of `Cc1c(NC(=O)c2cccc(NC(=O)C(C)NC(=O)c3ccco3)c2)c(=O)n(-c2ccccc2)n1C` (centres undefined), the EC50 in the data set on Human alphaherpesvirus 1 [15] is 64 µM. Half-maximal inhibition in the data set with Human alphaherpesvirus 1 [16] (IC50) required 29 µM. The molecule also returned a CC50 in data set [17] of 2040 µM.

In the data set with Human alphaherpesvirus 1 [15], `CC1Oc2ccc(NC(=O)[C@@H](Cc3c[nH]c4ccccc34)NC(=O)c3ccc(F)cc3)cc2NC1=O` (some centres undefined) showed an EC50 of 29 µM. In the data set on Human alphaherpesvirus 1 [16], this molecule yielded an IC50 of 29 µM. In addition, the CC50 in [17] turned out to be 1410 µM.

Turning to `CCNS(=O)(=O)c1cc(-c2c(C)nc3c(NCc4ccnc(CC)c4)cc(Cl)nn23)ccc1OO`, the EC50 in the data set with Hepatitis C virus [8] is 0.029 µM; in the data set on Human rhinovirus sp., 0.075 µM; in the data set with Coxsackievirus B3 it was 0.058 µM. In the data set “in vitro [9]”, the CC50 came to 18.3 µM.

`Cc1cc(-c2cc(C(=O)Nc3nc(CN4CCCC(C)C4)cs3)c3c(C)noc3n2)c(C)o1` (centres undefined): in the data set on Human alphaherpesvirus 1 [15], it took 32 µM to reach a half-maximal effect (EC50). Also, the IC50 with Human alphaherpesvirus 1 [16] stood at 29 µM. The same molecule registered a CC50 in data set [17] of 159 µM.

In the data set on Human alphaherpesvirus 1 [18], `O=C(Nc1c[nH]nc1-c1nc2ccc(CN3CCOCC3)cc2[nH]1)NC1CC1` [AT-9283] registered an Activity of 70%.

For the molecule `Cc1cc(C(=O)NOCCO)c(Nc2ccc(I)cc2F)n(C)c1=O` [AZD-8330], the CC50 in data set [11] is above 100 µM. In addition, half-maximal inhibition in the data set on Influenza A virus [19] (IC50) was put at 0.04 µM.

Regarding `CNCc1ccc(-c2cc(-c3nc(-c4ccc(S(=O)(=O)C(C)C)cc4)cnc3N)on2)cc1` [BERZOSERTIB], the IC50 in the data set on SARS-CoV-2 [20] and in the data set with SARS-CoV-2 [21] was 0.00428 µM throughout. In addition, the Activity entry in the data set on Vero C1008 is given as “Non-Toxic”.

The molecule `O=C(NOCC1CC1)c1ccc(F)c(F)c1Nc1ccc(I)cc1Cl` [CI-1040] returned a CC50 in data set [11] of 312 µM. Also, the EC50 with Influenza A virus [22] is 0.026 µM.

With `CCc1cnn2c(NCc3ccc[n+]([O-])c3)cc(N3CCCC[C@H]3CCO)nc12` [DINACICLIB], in data set [11], the CC50 is above 100 µM.
